From paper PMC9308172 (Journal of medicinal chemistry, 2017)
Like-named read-outs stand apart in the source and are kept apart here.

What was measured:
M2TMWT [1] = target: T1, M2TMWT (Influenza A virus, UniProt P0DOF5); details: cited from earlier work
M2TMWT [2] = target: T1, M2TMWT; assay type: binding
[3] = tested on: A/California/07/2009 (H1N1) M2: N31; details: cited from earlier work

T1 sequence (P0DOF5 22-46 limits assumed): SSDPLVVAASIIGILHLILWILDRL

Row | SMILES | TΔS (M2TMWT [1]) | ΔG (M2TMWT [1]) | ΔH (M2TMWT [1]) | ΔG (M2TMWT [2]) | % block after 3 min [3] | % block after 30 min [3]
1 | CN1CCCC12C1CC3CC(C1)CC2C3 (stereo not drawn) [Compound 7] | 4.46 ± 0.361 kcal/mol | -8.279 ± 0.229 kcal/mol | -3.819 ± 0.28 kcal/mol |  |  | 
2 | C1CNC2(C1)C1CC3CC(C1)CC2C3 (stereo not drawn) [Compound 6] | 3.97 ± 0.614 kcal/mol | -9.109 ± 0.44 kcal/mol | -5.136 ± 0.421 kcal/mol |  |  | 
3 | NC1(C23CC4CC(CC(C4)C2)C3)CCCC1 [Compound 9] |  |  |  | -6.637 ± 0.189 kcal/mol |  | 
4 | CC12CC3CC(CC(C3)C13CCCN3)C2 (stereo not drawn) [Compound 8, 1′-Methylspiro[pyrrolidine-2,2′-adamantane]] | 3 ± 0.37 kcal/mol | -8.081 ± 0.201 kcal/mol | -5.079 ± 0.311 kcal/mol |  |  | 
5 | CCCC1(N)C2CC3CC(C2)CC1C3 (stereo not drawn) [Compound 5] | 0.932 ± 0.347 kcal/mol | -8.707 ± 0.165 kcal/mol | -7.796 ± 0.308 kcal/mol |  | 0 ± 5 (100 μM; 2) % | 9 ± 10 (100 μM, 3) %
6 | CCC1(N)C2CC3CC(C2)CC1C3 (stereo not drawn) [Compound 4] | 1.38 ± 0.251 kcal/mol | -8.521 ± 0.129 kcal/mol | -7.139 ± 0.21 kcal/mol |  |  | 
7 | CC1(N)C2CC3CC(C2)CC1C3 (stereo not drawn) [Compound 3] | 1.51 ± 0.289 kcal/mol | -8.31 ± 0.129 kcal/mol | -6.79 ± 0.261 kcal/mol |  |  | 
8 | NC12CC3CC(CC(C3)C1)C2 [Compound 1, Amantadine, reference compound] | 1.11 ± 0.521 kcal/mol | -7.77 ± 0.141 kcal/mol | -6.661 ± 0.5 kcal/mol |  | 14 ± 2 (100 μM; 26) % | 
9 | NC1C2CC3CC(C2)CC1C3 (stereo not drawn) [Compound 2] | 0.93 ± 0.44 kcal/mol | -7.959 ± 0.129 kcal/mol | -7.029 ± 0.421 kcal/mol |  | 13 ± 3 (100 μM; 2) % | 16 (100 μM; 1) %
